For orientation: IC20 means the point of the concentration-response curve where the effect stands at 20%. Broadly, the IC50 is the concentration needed to halve the response being measured. Higher therefore signals weaker potency.

Data on 13 compounds can be found in paper PMC3114813 (Environmental Health Perspectives, 2011).

One series concerns aromatase. More on the design: method as in Vinggaard et al. 2000. The conditions noted are these: human placental microsomes; ref Vinggaard et al. 2000; cited from earlier work.
The test system of the next series is MDA-kb2 cells. The settings on record: for Cytotoxic EC20 (μM) MDA-kb2: EC20 = concentration that produces a 20% effect. The method, then: (§1) MDA-kb2 cells are human breast cancer cells stably transfected with a firefly luciferase reporter gene that is driven by an androgen-response element–containing promoter ([Wilson et al. 2002]). Details of the modified assay were published previously ([Ermler et al. 2010]). Briefly, cells were seeded at a concentration of 1 × 10^5 cells/mL in phenol red–free Leibowitz-15 medium (Invitrogen Ltd., Paisley, UK) containing 10% (charcoal-stripped) fetal calf serum (Invitrogen Ltd.) in white luminometer plates and allowed to attach for 24 hr. Cells were then exposed to eight serial dilutions of selected pesticides with or without DHT (0.25 nM). After 24 hr, luciferase activity was determined with SteadyGlo assay reagent (Promega UK Ltd., Southampton, Hampshire, UK) and measured in a plate reader (FLUOstar Optima, BMG Labtech GmbH, Offenburg, Germany). […] All concentrations were tested in duplicate over two plates, and each pesticide was measured at least twice in separate experiments. For comparative purposes, luminescence was normalized to DHT alone at coexposure concentration (maximum response, 100%) and solvent-only (ethanol) controls (minimum response, 0%). […] Pesticides were initially tested over a concentration range of 0.64 nM–50 μM (5× dilutions) as a range-finding exercise. Subsequently, the concentration ranges were modified to reflect the potency and toxicity of each individual compound. […] Sixty percent of the pesticides were repeat tested using the same product but with new stock solutions and by a different experimenter.
(§2) To analyze antiandrogenic action, raw luminescence readings were normalized on a plate-by-plate basis to the means of the positive DHT controls (n = 8) and the solvent controls (n = 8) ([Ermler et al. 2010]). […] Specifically, a variety of nonlinear regression models were fitted independently to the same data set, and the best-fitting model was selected using a statistical goodness-of-fit criterion. […] Data considered to be statistically significant at p < 0.05 were analyzed using the best-fit approach as described above. All statistical analysis was performed using SAS statistical software (SAS Institute Inc., Cary, NC, USA). From the best-fitting model, we derived inhibitory concentrations for antiandrogenicity and effect concentrations for cytotoxicity.

A further series deals with yeast. The series can be described thus: YAS, cytotoxicity (turbidity at 620 nm). The conditions noted are these: for Cytotoxic EC20 (μM) YAS: EC20 = concentration that produces a 20% effect, yeast turbidity. The series is classed as cell-based. How it is done:
The methods for the YAS have been described previously ([Sohoni and Sumpter 1998]). Briefly, stimulation of the transfected AR causes a color change in the media, which is measured by absorbance at 540 nm (Labsystems Multiskan Multisoft, Vienna, VA, USA). Plates were also measured at 620 nm to measure cell growth (turbidity) to check for any cytotoxic effects that may have occurred. Pesticides were coincubated with DHT (6.4 nM). […] Incubation time was 53 hr at 28°C. […] Pesticide serial dilutions were tested in duplicate over two plates and were tested in two separate experiments.

In series [1] the target is T1, androgen receptor (AR) (Homo sapiens, UniProt P10275, Q868H).
T1 construct: MDA-kb2 cells are human breast cancer cells stably transfected with a firefly luciferase reporter gene; endogenous in cells; host or cells: MDA-kb2 (human breast cancer cells)
T1 sequence (P10275 1-920 Q868H): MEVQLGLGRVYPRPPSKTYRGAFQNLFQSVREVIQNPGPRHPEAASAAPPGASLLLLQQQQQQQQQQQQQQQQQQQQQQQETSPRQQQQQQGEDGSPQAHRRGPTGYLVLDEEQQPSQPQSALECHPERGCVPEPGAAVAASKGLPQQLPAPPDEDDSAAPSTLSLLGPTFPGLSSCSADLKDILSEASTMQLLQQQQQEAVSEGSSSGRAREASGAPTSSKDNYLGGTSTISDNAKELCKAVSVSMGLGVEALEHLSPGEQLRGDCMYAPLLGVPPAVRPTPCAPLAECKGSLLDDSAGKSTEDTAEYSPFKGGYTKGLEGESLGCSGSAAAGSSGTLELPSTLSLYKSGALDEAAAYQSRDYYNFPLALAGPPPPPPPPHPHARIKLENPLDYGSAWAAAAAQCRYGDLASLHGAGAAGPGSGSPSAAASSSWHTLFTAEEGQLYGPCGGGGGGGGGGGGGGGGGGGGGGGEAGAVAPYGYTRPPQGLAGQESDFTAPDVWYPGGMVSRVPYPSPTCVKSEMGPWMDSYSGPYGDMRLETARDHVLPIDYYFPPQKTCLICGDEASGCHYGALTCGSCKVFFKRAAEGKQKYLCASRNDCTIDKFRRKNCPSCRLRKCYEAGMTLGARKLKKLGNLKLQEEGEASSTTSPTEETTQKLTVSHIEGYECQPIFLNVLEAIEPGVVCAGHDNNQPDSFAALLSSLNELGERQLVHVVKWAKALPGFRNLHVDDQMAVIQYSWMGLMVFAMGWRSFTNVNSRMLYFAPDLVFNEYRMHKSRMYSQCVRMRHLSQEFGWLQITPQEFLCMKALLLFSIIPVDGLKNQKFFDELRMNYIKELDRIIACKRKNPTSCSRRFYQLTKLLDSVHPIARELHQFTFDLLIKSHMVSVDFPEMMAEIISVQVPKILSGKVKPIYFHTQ
The series is classed as cell-based. The settings on record: androgenic in the absence of DHT; Neg = no response was observed. How it is done:
as §1, §2

Series [2] deals with T1, androgen receptor (AR). The series can be described thus: cell-based. The settings on record: for IC20: MDA-kb2, read-out: Antiandrogen IC20 (μM) MDA-kb2; for Antiandrogenic activity in the MDA-kb2 assay (in words): MDA-kb2 / 'our assay'; for ERR (environmental relevance ratio): total exposure score / IC20 (MDA-kb2), recalculated using experimental data. The method, then: as §1, §2

The target of series [3] is T2, androgen receptor (AR) (Homo sapiens, UniProt P10275).
T2 construct: expressed in transfected cells; host or cells: yeast (YAS strain)
T2 sequence (P10275 1-920): T1 sequence (P10275 1-920 Q868H) with H868Q
Kind of series: cell-based. In kind it is cell-based. The settings on record: for IC20: coincubated with DHT 6.4 nM, 53 hr at 28°C, Neg = no response was observed, read-out: Antiandrogen IC20 (μM) YAS. How it is done: Briefly, stimulation of the transfected AR causes a color change in the media, which is measured by absorbance at 540 nm (Labsystems Multiskan Multisoft, Vienna, VA, USA). Plates were also measured at 620 nm to measure cell growth (turbidity) to check for any cytotoxic effects that may have occurred. […] Incubation time was 53 hr at 28°C. […] Pesticide serial dilutions were tested in duplicate over two plates and were tested in two separate experiments.
Specifically, a variety of nonlinear regression models were fitted independently to the same data set, and the best-fitting model was selected using a statistical goodness-of-fit criterion. […] Data considered to be statistically significant at p < 0.05 were analyzed using the best-fit approach as described above. All statistical analysis was performed using SAS statistical software (SAS Institute Inc., Cary, NC, USA). From the best-fitting model, we derived inhibitory concentrations for antiandrogenicity and effect concentrations for cytotoxicity.

For series [4] the following is noted: stable on food commodities; ref EFSA 2007, 2010a, 2010b; cited from earlier work.
Details of series [5]: method as in Lambright et al. 2000; Taxvig et al. 2007. The conditions noted are these: ref Lambright et al. 2000; Taxvig et al. 2007; cited from earlier work.

Numbering of substitutions follows the chain as printed.

As to `CCCC1COC(Cn2cncn2)(c2ccc(Cl)cc2Cl)O1` (stereo not shown) [propiconazole], the Aromatase inhibition entry in the series on aromatase is “inhibited aromatase”.
For the compound `C=CCOC(Cn1ccnc1)c1ccc(Cl)cc1Cl` (stereo not shown) [Imazalil], the Aromatase inhibition result in the series with aromatase was “inhibited aromatase”. In addition, in the series with MDA-kb2 cells, the “Cytotoxic EC20 (μM) MDA-kb2” value was found to be 19.0 µM.
Turning to `CCCN(CCOc1c(Cl)cc(Cl)cc1Cl)C(=O)n1ccnc1` [Prochloraz], the Aromatase inhibition entry in the series with aromatase is reported as “inhibited aromatase”. The “Cytotoxic EC20 (μM) MDA-kb2” value with MDA-kb2 cells was 12.5 µM.
Take `CCOc1ccc2c(c1)C(C)=CC(C)(C)N2` [Ethoxyquin]: the “Cytotoxic EC20 (μM) YAS” value in the series with yeast was more than 200 µM. Further, at androgen receptor (AR) [1], the “Androgen EC20 (μM) MDA-kb2” value is recorded as “Neg”. At androgen receptor (AR) [2], the IC20 was 10.7 µM, the “Antiandrogenic activity in the MDA-kb2 assay (in words)” value is recorded as “in vitro AR antagonists” and the “ERR (environmental relevance ratio)” value is on record as 0.75. Further, the “Cytotoxic EC20 (μM) MDA-kb2” value in the series with MDA-kb2 cells is more than 50 µM. On androgen receptor (AR) [3], the IC20 was found to be 11.1 µM.
Regarding `Cc1ccc(N(SC(F)(Cl)Cl)S(=O)(=O)N(C)C)cc1` [Tolylfluanid], in the series on yeast, the “Cytotoxic EC20 (μM) YAS” value worked out at 1.14 µM. The “Cytotoxicity in the YAS assay (in words)” value with yeast (YAS) is on record as “cytotoxic”. In addition, the “Androgen EC20 (μM) MDA-kb2” value on androgen receptor (AR) [1] was “Neg”. In addition, at androgen receptor (AR) [2], the “Antiandrogen IC20 (μM) MDA-kb2” value is on record as “Neg” and the “Antiandrogenic activity in the MDA-kb2 assay (in words)” value is recorded as “lacked activity”. In addition, in the series with MDA-kb2 cells, the “Cytotoxicity in the MDA-kb2 assay (in words)” value is reported as “cytotoxic” and the “Cytotoxic EC20 (μM) MDA-kb2” value came to 8.09 µM. Also, the “Antiandrogenic activity in the YAS (in words)” value at androgen receptor (AR) [3] (YAS) is listed as “antiandrogenic”. Further, the IC20 on androgen receptor (AR) [3] is 0.234 µM.
With `COc1ccc(C(=CC(=O)N2CCOCC2)c2ccc(Cl)cc2)cc1OC` [Dimethomorph], the “Cytotoxic EC20 (μM) YAS” value in the series with yeast is more than 50 µM. Moreover, the “Parent compound remaining on food commodities” value (from here on “Parent compound remaining”) in series [4] is more than 70%. The “Androgen EC20 (μM) MDA-kb2” value on androgen receptor (AR) [1] was “Neg”. Moreover, on androgen receptor (AR) [2], the IC20 is 0.263 µM, the “Antiandrogenic activity in the MDA-kb2 assay (in words)” value was “antiandrogenic” and the “ERR (environmental relevance ratio)” value was 45.6. In addition, the “Cytotoxic EC20 (μM) MDA-kb2” value in the series with MDA-kb2 cells is more than 25 µM. For the same compound, the IC20 on androgen receptor (AR) [3] amounted to 38.5 µM.
Take `CON(C)C(=O)Nc1ccc(Cl)c(Cl)c1` [Linuron]: in the series with MDA-kb2 cells, the “Cytotoxic EC20 (μM) MDA-kb2” value is more than 50 µM. Besides, in series [5], the “In vivo antiandrogen (in words)” value is listed as “known in vivo antiandrogens”.
Turning to `CC12CC1(C)C(=O)N(c1cc(Cl)cc(Cl)c1)C2=O` (stereo not shown) [Procymidone, reference compound], the “Cytotoxic EC20 (μM) YAS” value with yeast was more than 160 µM. Moreover, on androgen receptor (AR) [1], the “Androgen EC20 (μM) MDA-kb2” value is given as “Neg”. The compound also yielded an IC50 against androgen receptor (AR) [2] (MDA-kb2, internal quality control for antiandrogenicity) of 0.53 µM. For the same compound, at androgen receptor (AR) [2], the IC20 amounted to 0.163 µM, the “Antiandrogenic activity in the MDA-kb2 assay (in words)” value is “in vitro AR antagonists” and the “ERR (environmental relevance ratio)” value is recorded as 202.5. In addition, in the series on MDA-kb2 cells, the “Cytotoxicity in the MDA-kb2 assay (in words)” value is reported as “nontoxic” and the “Cytotoxic EC20 (μM) MDA-kb2” value is more than 50 µM. In addition, the IC20 on androgen receptor (AR) [3] worked out at 0.956 µM.
`CC(C)(C)C(O)C(Oc1ccc(Cl)cc1)n1cncn1` (stereo not shown) [triadimenol]: in the series with aromatase, the Aromatase inhibition entry was “inhibited aromatase”.
`N#Cc1c[nH]cc1-c1cccc2c1OC(F)(F)O2` [Fludioxonil]: the “Cytotoxic EC20 (μM) YAS” value with yeast was more than 160 µM. Moreover, the “Parent compound remaining” value in series [4] was more than 70%. Moreover, in the series on MDA-kb2 cells, the “Cytotoxic EC20 (μM) MDA-kb2” value is 28.5 µM.
For `CC(C)(C)C(O)(CCc1ccc(Cl)cc1)Cn1cncn1` (stereo not shown) [Tebuconazole], the “Cytotoxic EC20 (μM) MDA-kb2” value in the series on MDA-kb2 cells was found to be 38.9 µM. Besides, in series [5], the “In vivo antiandrogen (in words)” value is on record as “known in vivo antiandrogens”.
For the compound `CC1(C(=O)Nc2ccc(O)c(Cl)c2Cl)CCCCC1` [Fenhexamid], in series [4], the “Parent compound remaining” value was more than 70%. The “Cytotoxic EC20 (μM) MDA-kb2” value with MDA-kb2 cells is 21.6 µM.
Consider `CC(C)(C)C(=O)C(Oc1ccc(Cl)cc1)n1cncn1` (stereo not shown) [triadimefon], for which the Aromatase inhibition entry with aromatase is reported as “inhibited aromatase”.
